What was measured:
[1] = test system: patients with resistant hypertension; assay: PRECISION phase 3 trial: ambulatory blood pressure monitoring (ABPM); format: in vivo, human; settings: for 24 h ambulatory DBP, placebo-corrected decrease / 24 h ambulatory SBP, placebo-corrected decrease: end of part 1 (week 4)
Procedure: (§1) A single, randomized study with three sequential treatment parts was designed. The study design addressed both the 4-week placebo-controlled efficacy of 12.5 and 25 mg aprocitentan (Part 1) and the durability of its effects in long-term active treatment with 25 mg aprocitentan for a further 32 weeks (Part 2) followed by a 12-week placebo-controlled withdrawal period with patients re-randomized to 25 mg or placebo (Part 3) (see for example Danaietash P et al; Identifying and treating resistant hypertension in PRECISION—a randomized long-term clinical trial with Aprocitentan. J Clin Hypertension 2022 (in press). Patients with uncontrolled BP (measured as unattended automated office BP) despite the use of three or more antihypertensive medications for at least 1 year were screened. They were switched to a single-tablet triple fixed combination antihypertensive therapy for at least 4 weeks before entering a single-blind placebo run-in period. The 4-week placebo run-in period further excluded placebo responders. The randomization period consisted of 3 sequential parts: • 1) a 4-week double-blind part with aprocitentan 12.5 mg, 25 mg, or placebo (1:1:1 ratio); • 2) a 32-week single-blind part with aprocitentan 25 mg; and • 3) a 12-week randomized withdrawal part with aprocitentan 25 mg or placebo (1:1 ratio).
ABPM is performed over a 24-hour period with the Mobil-O-Graph NG device at baseline, and Weeks 4, 36, and 40. Systolic BP and diastolic BP are measured every 20 minutes from 06:00-23:00 and every 30 minutes from 23:00-06:00. Monitoring is initiated between 06:00 and 11:00.
(§2) • Part 1: Double-blind, randomized parallel-group and placebo-controlled and lasts for 4 weeks. Subjects received (1:1:1 ratio), 25 or 12.5 mg aprocitentan, or placebo. • Part 2: Single-blind and single-arm, lasts for 32 weeks. All subjects received aprocitentan 25 mg. • Part 3: Double-blind withdrawal. All subjects completing part 2 and entering part 3 are re-randomized (1:1 ratio) to either aprocitentan 25 mg or placebo.
(§3) Other secondary efficacy endpoints include • changes from baseline to Week 4 and from DB-WD baseline to Week 40 in mean trough sitting diastolic blood pressure (SiDBP) measured as uAOBP. • and changes in systolic/diastolic BP measured by ABPM, including changes from baseline to Week 4 of DB treatment in 24-h mean SBP and DBP, changes from baseline to Week 4 in daytime and night-time mean SBP and DBP, changes from DB-WD baseline (Week 36) to Week 40 in 24-h mean SBP and DBP, and changes from DB-WD baseline (Week 36) to Week 40 in daytime and night-time mean SBP and DBP.

[2] = test system: patients with resistant hypertension; assay: PRECISION phase 3 trial: trough unattended automated office blood pressure (uAOBP); format: in vivo, human; settings: for office SBP at 4 weeks, difference versus placebo (SE): part 1 (primary endpoint); for least square mean (SE) change in office SBP at 4 weeks: part 1, on standardized background therapy; for office DBP decrease compared with placebo: week 4, part 1
Procedure: as §1
The standardized byckground treatment (SBT) is a single-tablet triple fixed combination of a CCB (amlodipine), an ARB (valsartan), and a diuretic (hydrochlorothiazide); two dose strengths are available: 5/160/25 mg and 10/160/25 mg, respectively. The maximum tolerated dose strength is selected at the investigator's discretion during the treatment period of the study and must be kept stable for at least 1 week prior to randomization continuing through the end of the DB part and again during the DB-WD part. Patients who are treated with a β-blocker at screening will continue their treatment throughout the study.
Study treatment and SBT are to be taken every morning except on the morning of study visit days, where treatment is administered after the completion of the visit assessments and the measurement of BP.
Trough uAOBP is measured at each visit with the same automated oscillometric sphygmomanometer (Microlife® WatchBP Office), which records 5 sitting BP readings (one per minute, first value excluded from the average), with the patient resting undisturbed, alone (unattended) in a quiet place for 5 minutes.
as §2
The primary efficacy endpoint is the change from baseline to Week 4 of DB treatment in mean trough SiSBP measured as uAOBP, where baseline is defined as the last available measurement before the start of DB treatment. […]
as §3

[3] = Black or African Americans, baseline to Week 4
[4] = part 3, after 4 weeks of withdrawal (week 40), aprocitentan 25 mg
[5] = subjects with CKD stage 3-4, baseline to Week 4

With `NS(=O)(=O)Nc1ncnc(OCCOc2ncc(Br)cn2)c1-c1ccc(Br)cc1` [aprocitentan, {5-(4-bromo-phenyl)-6-[2-(5-bromo-pyrimidin-2-yloxy)-ethoxy]-pyrimidin-4-yl}-sulfamide] the “difference 25 mg versus 12.5 mg in LS mean BP reduction with ABPM (night-time SBP)” value [1, 3] was “up to −5.90 mmHg”, the “further decrease in night-time SBP with 25 mg compared to 12.5 mg” value [1, 3] was > 100% and the “24 h ambulatory DBP, placebo-corrected decrease” value ([1]; aprocitentan 12.5 mg) was −4.3 mm Hg. The “24 h ambulatory SBP, placebo-corrected decrease” value ([1]; aprocitentan 12.5 mg) was −4.2 mm Hg, the “placebo-corrected SBP lowering effect during the daytime” value ([1]; aprocitentan 12.5 mg, week 4) was −3.8 mm Hg and the “placebo-corrected SBP lowering effect during the night time” value ([1]; aprocitentan 12.5 mg, week 4) was −5.1 mm Hg. For the same compound, the “24 h ambulatory DBP, placebo-corrected decrease” value ([1]; aprocitentan 25 mg) was −5.8 mm Hg, the “24 h ambulatory SBP, placebo-corrected decrease” value ([1]; aprocitentan 25 mg) was −5.9 mm Hg and the “placebo-corrected SBP lowering effect during the daytime” value ([1]; aprocitentan 25 mg, week 4) was −5.3 mm Hg. For the same compound, the “24 h ambulatory DBP increase with placebo compared with aprocitentan” value [1, 4] was 6.8 mm Hg, the “24 h ambulatory SBP increase with placebo compared with aprocitentan” value [1, 4] was 6.5 mm Hg and the “office SBP at 4 weeks, difference versus placebo (SE)” value ([2]; aprocitentan 12.5 mg) was “statistically significant and clinically meaningful reduction”. The “least square mean (SE) change in office SBP at 4 weeks” value ([2]; aprocitentan 12.5 mg) was −15.3 (0.9) mm Hg, the “office DBP decrease compared with placebo” value ([2]; aprocitentan 12.5 mg) was −3.9 mm Hg and the “office blood pressure reduction from baseline during part 2” value ([2]; aprocitentan 25 mg, 32-week single-blind part 2, patients previously on aprocitentan) was “maintained”. The “office SBP at 4 weeks, difference versus placebo (SE)” value ([2]; aprocitentan 25 mg) was “statistically significant and clinically meaningful reduction”, the “least square mean (SE) change in office SBP at 4 weeks” value ([2]; aprocitentan 25 mg) was −15.2 (0.9) mm Hg and the “office DBP decrease compared with placebo” value ([2]; aprocitentan 25 mg) was −4.5 mm Hg. For the same compound, the “office DBP increase with placebo compared with aprocitentan” value ([2]; part 3, after 4 weeks of withdrawal, aprocitentan 25 mg) was 5.2 mm Hg, the “difference 25 mg versus 12.5 mg in LS mean reduction, primary endpoint SiSBP” value [2, 5] was “up to −5.88 mmHg” and the “further decrease in SiSBP with 25 mg compared with 12.5 mg” value [2, 5] was 44%.

Source: US20250345332A1, “APROCITENTAN FOR THE TREATMENT OF HYPERTENSION” (IDORSIA PHARMACEUTICALS LTD, priority 2022, published 2025)
